Converted amounts (≈) assume the structure as drawn. The source made the active and inactive calls. The calls are words filed in the database; no cut-off is given here.
Legend:
[1] = molecular target: T1, Leukotriene A-4 hydrolase (Homo sapiens, UniProt P09960); experiment: Inhibition of LTA4H (unknown origin) using Arg-AMC as substrate preincubated with compound for 15 mins followed by substrate addition and measured after every 10 mins for 300 mins by fluorescence based assay
T1 sequence (P09960 whole entry): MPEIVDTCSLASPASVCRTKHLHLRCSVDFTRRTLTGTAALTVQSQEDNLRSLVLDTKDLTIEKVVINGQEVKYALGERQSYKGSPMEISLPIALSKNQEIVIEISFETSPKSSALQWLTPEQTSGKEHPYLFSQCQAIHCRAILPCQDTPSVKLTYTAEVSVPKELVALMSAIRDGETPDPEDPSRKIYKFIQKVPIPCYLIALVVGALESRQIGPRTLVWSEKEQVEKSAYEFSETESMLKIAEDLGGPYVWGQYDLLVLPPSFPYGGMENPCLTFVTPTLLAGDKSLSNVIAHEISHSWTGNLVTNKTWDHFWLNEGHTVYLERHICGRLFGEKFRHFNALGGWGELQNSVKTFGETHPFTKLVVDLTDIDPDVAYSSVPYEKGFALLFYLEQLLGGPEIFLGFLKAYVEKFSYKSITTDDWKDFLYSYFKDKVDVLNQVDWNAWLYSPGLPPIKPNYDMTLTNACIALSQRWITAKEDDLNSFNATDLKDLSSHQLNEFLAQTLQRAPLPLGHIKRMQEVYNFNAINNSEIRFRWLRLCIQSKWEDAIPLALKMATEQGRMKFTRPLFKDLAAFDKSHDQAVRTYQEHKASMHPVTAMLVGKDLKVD

[2] = molecular target: T1, Leukotriene A-4 hydrolase; experiment: Inhibition of LTA4H in human whole blood assessed as ionophore-stimulated LTB4 release preincubated for 15 mins by competitive immunoassay; format: tissue-based
[3] = Inhibition of calcium ionophore A23187-stimulated LTB4 release in C57BL/6 mouse model at 10 mg/kg, po bid measured after 2 hrs; format: functional
[4] = Volume of distribution at steady state in C57BL/6 mouse at 1 mg/kg, iv measured upto 24 hrs by LC-MS/MS analysis; format: ADME, organism-based; conditions: in vivo, read-out: Vdss
[5] = Clearance in Wistar rat at 1 mg/kg, iv measured upto 24 hrs by LC-MS/MS analysis; format: ADME, organism-based; conditions: in vivo
[6] = MRT in Wistar rat at 1 mg/kg, iv measured upto 24 hrs by LC-MS/MS analysis; format: ADME, organism-based; conditions: in vivo
[7] = Clearance in dog at 1 mg/kg, iv measured upto 24 hrs by LC-MS/MS analysis; format: ADME, organism-based, Canis lupus familiaris; conditions: in vivo
[8] = MRT in dog at 1 mg/kg, iv measured upto 24 hrs by LC-MS/MS analysis; format: ADME, organism-based, Canis lupus familiaris; conditions: in vivo
[9] = Cmax in C57BL/6 mouse at 3 mg/kg, po measured upto 24 hrs by LC-MS/MS analysis; format: ADME, organism-based; parameters: time < 24 hrs, dose 3 mg/kg, route po; conditions: in vivo
[10] = AUC (0 to infinity) in C57BL/6 mouse at 3 mg/kg, po measured upto 24 hrs by LC-MS/MS analysis; format: ADME, organism-based; parameters: time < 24 hrs, dose 3 mg/kg, route po; conditions: in vivo
[11] = Cmax in Wistar rat at 3 mg/kg, po measured upto 24 hrs by LC-MS/MS analysis; format: ADME, organism-based; parameters: dose 3 mg/kg, time < 24 hrs, route po; conditions: in vivo
[12] = Cmax in Wistar rat at 30 mg/kg, po measured upto 24 hrs by LC-MS/MS analysis; format: ADME, organism-based; parameters: time < 24 hrs, dose 30 mg/kg, route po; conditions: in vivo
[13] = Metabolic stability in mouse hepatocyte assessed as intrinsic clearance; format: ADME, cell-based; conditions: hepatocytes
[14] = AUC (0 to infinity) in Wistar rat at 3 mg/kg, po measured upto 24 hrs by LC-MS/MS analysis; format: ADME, organism-based; parameters: time < 24 hrs, dose 3 mg/kg, route po; conditions: in vivo
[15] = Oral bioavailability in Wistar rat at 3 mg/kg measured upto 24 hrs by LC-MS/MS analysis; format: ADME, organism-based; conditions: in vivo
[16] = Oral bioavailability in Wistar rat at 30 mg/kg measured upto 24 hrs by LC-MS/MS analysis; format: ADME, organism-based; conditions: in vivo
[17] = Cmax in dog at 3 mg/kg, po measured upto 24 hrs by LC-MS/MS analysis; format: ADME, organism-based, Canis lupus familiaris; parameters: time < 24 hrs, dose 3 mg/kg, route po; conditions: in vivo
[18] = AUC (0 to infinity) in dog at 3 mg/kg, po measured upto 24 hrs by LC-MS/MS analysis; format: ADME, organism-based, Canis lupus familiaris; parameters: time < 24 hrs, dose 3 mg/kg, route po; conditions: in vivo
[19] = Oral bioavailability in dog at 3 mg/kg measured upto 24 hrs by LC-MS/MS analysis; format: ADME, organism-based, Canis lupus familiaris; conditions: in vivo
[20] = Metabolic stability in rat hepatocyte assessed as intrinsic clearance; format: ADME, cell-based; conditions: hepatocytes
[21] = Metabolic stability in dog hepatocyte assessed as intrinsic clearance; format: ADME, cell-based, Canis lupus familiaris; conditions: hepatocytes
[22] = Solubility of compound in FaSSIF at pH 6.8; format: physicochemical
[23] = Inhibition of arachidonic acid-stimulated LTB4 release in skin inflammation 129S2/SvPasCrl mouse model at 0.03 mg/kg, po pretreated with compound for 4 hrs followed by arachidonic acid stimulation and measured after 1 hr; format: functional; conditions: time 5 hrs
[24] = Inhibition of neutrophil influx in arachidonic acid-stimulated skin inflammation 129S2/SvPasCrl mouse model assessed as effect on MPO level in skin at 0.3 mg/kg, po pretreated with compound for 4 hrs followed by arachidonic acid stimulation and measured after 1 hr; format: functional; conditions: time 5 hrs
Mus musculus [25] = experiment: Antiarthritic activity in KRN passive serum-induced arthritis C57BL/6 mouse model assessed as reduction in proteoglycan loss at 0.1 to 10 mg/kg, po bid measured on day 7 at 2 hrs after first dose and 14 hrs after second dose; format: functional, organism-based; conditions: dose 0.1-10 mg/kg, time 7.0 day
Mus musculus [26] = experiment: Antiarthritic activity in KRN passive serum-induced arthritis C57BL/6 mouse model assessed as reduction in macrophage numbers at 0.1 to 10 mg/kg, po bid measured on day 7 at 2 hrs after first dose and 14 hrs after second dose; format: functional, organism-based; conditions: dose 0.1-10 mg/kg, time 7.0 day
Mus musculus [27] = experiment: Antiarthritic activity in KRN passive serum-induced arthritis C57BL/6 mouse model assessed as reduction in tissue destruction at 0.1 to 10 mg/kg, po bid measured on day 7 at 2 hrs after first dose and 14 hrs after second dose; format: functional, organism-based; conditions: dose 0.1-10 mg/kg, time 7.0 day
in vivo [28] = conditions: Sprague-Dawley, rat, iv, 1 mg/kg
in vivo [29] = conditions: Sprague-Dawley, rat, iv, 1 mg/kg; remark: listed apart in the source
in vivo [30] = conditions: C57BL/6, mouse, in vivo, po, 10 mg/kg
physchem = conditions: buffer, pH 6.8
in vitro [31] = conditions: rat, liver microsomes
in vitro [32] = conditions: human, liver microsomes

N[C@H](CO)Cn1ccc(-c2ccc(Oc3ncc(-c4cc[nH]n4)cc3F)cc2)n1
IC50 [1]: < 3 nM
IC50 [2]: 47 nM
inhibition in vivo at 10 mg/kg [3]: 95%
Vd [4]: 1.6 L/kg
clearance [5]: 7.3 mL/min/kg
MRT [6]: 16 h
clearance [7]: 2.2 mL/min/kg
MRT [8]: 28 h
Cmax [9]: 443 nM
AUC(0-inf) [10]: 5.51 µM·h
Cmax [11]: 351 nM
Cmax [12]: 5490 nM
CLH [13]: 6 µL/min/mg
AUC(0-inf) [14]: 4.99 µM·h
bioavailability [15]: 39%
bioavailability [16]: 46%
Cmax [17]: 1180 nM
AUC(0-inf) [18]: 15 µM·h
bioavailability [19]: 39%
CLH [20]: 20 µL/min/mg
CLH [21]: 6 µL/min/mg
solubility [22]: > 2000 µg/mL
inhibition in vivo at 0.03 mg/kg [23]: 74%
inhibition in vivo at 0.3 mg/kg [24]: 81%
Activity (Mus musculus [25]): Active
Activity (Mus musculus [26]): Active
Activity (Mus musculus [27]): Active
Vd (in vivo [28]): 5.5 L/kg
MRT (in vivo [29]): 4.6 h
concentration at 2 h (in vivo [30]): 2600 nM
solubility (physchem): 180 µM (≈ 71 µg/mL)
microsomal CLint (in vitro [31]): 179 µL/min/mg
microsomal CLint (in vitro [32]): < 25 µL/min/mg

— ChEMBL document CHEMBL5375967 (J Med Chem, 2023)
